Measured values taken from patent publication US20070060638A1, “Methods and therapies for potentiating therapeutic activities of a cannabinoid receptor agonist via administration of a cannabinoid receptor antagonist” (priority 2005, published 2007).

Assays:
[1] = system: Male Long-Evans rats (tail flick, thermal nociception); assay: Rat tail flick test, single intravenous injection; type: in vivo; conditions: for tail flick latency (MPE) compared with same dose of WIN alone: i.v. single injection
Protocol: (§1) Male Long-Evans rats (N=175) from Charles River (Montreal, QC, Canada) ranging from 230-380 grams, were housed in polycarbonate cages in pairs and given free access to food (Lab Diet, PMI Nutrition International, Inc., Brentwood, Mo., USA) and water. Animal quarters were kept on a reverse light-dark cycle (lights on from 7 pm to 7 am) and maintained at 22±2° C. and 45±20% relative humidity. Animals were given a minimum of 3 days prior to the experiment to acclimatize to the animal quarters.
(§2) All injections were administered in a volume of 1 ml/kg. All chemicals were dissolved in 5% dimethyl sulfoxide (DMSO; Sigma, Oakville, ON, Canada), 0.3% polyoxyethylenesorbitan monooleate (Tween® 80; Sigma, Oakville, ON, Canada) and 94.7% saline vehicle, and administered intravenously in the posterior ⅓ of the lateral tail vein.
For single injection testing, vehicle alone was used as a control injection (n=8).
(§3) The tail flick apparatus consisted of a projection lamp that creates radiant heat located just below the animal-testing surface (D'Amour, E. E. and Smith, D. L. J. Pharmacol. Exp. Ther. 1941 72:74-79). The light from the lamp projected through a small hole in the testing surface and was aimed at a photocell located 25 cm above the testing surface. A digital timer, connected to the apparatus, started when the heat source was activated. When the animal flicked its tail away from the heat source, the light from the projection lamp activated the photocell, simultaneously stopping the timer and turning off the lamp. The heat intensity was calibrated to result in baseline tail flick latencies of 2-3 seconds and a 10 second cutoff was used to minimize tissue damage.
Nociceptive reflexes to a thermal stimulus were tested using the tail flick analgesia meter. This apparatus focuses a hot beam on the animal's tail. The time it takes for the rat to flick its tail away from the heat source is a measure of pain; the longer the animal leaves its tail on the hotspot, the greater the degree of pain relief. On the day prior to tail flick testing, animals were handled on the tail flick apparatus for 5-10 minutes to reduce stress-induced analgesia (Kelly, S. J. and Franklin, K. B., Neuropharmacology 1985 24:1019-1025; Terman et al., Science 1984 226:1270-1277). For single injection tested groups, animals were restrained in a small towel and a baseline tail flick latency was measured. Following the baseline measure, animals were given a drug injection and tail flick latencies were assessed every 10 minutes for 90 minutes. For the repeated injection groups, animals were given one drug injection every day for seven days. Prior to the first injection, a baseline tail flick latency was measured. Following this measure, animals were given a drug injection and tail flick latencies were assessed 10 minutes post-injection. […] Post injection tail flick latencies were assessed on days 1, 3, 5, and 7. For all animals, tail flick latencies were converted into a percent of maximal possible effect (MPE) using the equation: MPE=[(post-injection latency−baseline latency)/(10 s cutoff−baseline latency)]×100
(§4) Separate two-way repeated measure ANOVAs were performed on the single injection groups, and repeated injection groups (see Example 2). Post-injection time (10-90 minutes for single injection groups) or day of injection (1-7 days for the repeated injection groups) were the within-subjects factors and drug group was the between-subjects factor. Whenever there were violations of sphericity, Huynh-Feldt corrections to the within-group degrees of freedom were reported. Because many drug group comparisons were irrelevant, a priori multiple comparisons were used to analyze the main drug effect using the Dunn's critical t-ratio. A corrected α of 0.005 was used for the single injection groups because there were 8 comparisons, and a corrected α of 0.01 was used for the repeated injection groups because there were 4 comparisons.

[2] = system: Male Long-Evans rats (tail flick, thermal nociception); assay: Rat tail flick test, repeated daily injections for 7 days (tolerance); type: in vivo; conditions: for tail flick latency thresholds compared with WIN alone: i.v. daily for 7 days
Protocol: as §1, §2
For repeated injection testing, vehicle alone was used as a control injection (n=8). […] The control group received 1.1 ng/kg ultra-low dose of SR alone.
as §3
Nociceptive reflexes to a thermal stimulus were tested using the tail flick analgesia meter. This apparatus focuses a hot beam on the animal's tail. The time it takes for the rat to flick its tail away from the heat source is a measure of pain; the longer the animal leaves its tail on the hotspot, the greater the degree of pain relief. On the day prior to tail flick testing, animals were handled on the tail flick apparatus for 5-10 minutes to reduce stress-induced analgesia (Kelly, S. J. and Franklin, K. B., Neuropharmacology 1985 24:1019-1025; Terman et al., Science 1984 226:1270-1277). For single injection tested groups, animals were restrained in a small towel and a baseline tail flick latency was measured. Following the baseline measure, animals were given a drug injection and tail flick latencies were assessed every 10 minutes for 90 minutes. For the repeated injection groups, animals were given one drug injection every day for seven days. Prior to the first injection, a baseline tail flick latency was measured. Following this measure, animals were given a drug injection and tail flick latencies were assessed 10 minutes post-injection. This time point was selected because it is the point at which maximal WIN-induced antinociception is detected in this protocol. Post injection tail flick latencies were assessed on days 1, 3, 5, and 7. For all animals, tail flick latencies were converted into a percent of maximal possible effect (MPE) using the equation: MPE=[(post-injection latency−baseline latency)/(10 s cutoff−baseline latency)]×100
as §4, with “A corrected α of 0.005 was used for the single injection groups because there were 8 comparisons, and a corrected α of 0.01 was used for the repeated injection groups because there were 4 comparisons.” left out

Compound | tail flick latency (MPE) compared with same dose of WIN alone ([1]; SR 0.055 ng/kg mixed with WIN 0.0625 mg/kg, t(14)=3.28) | tail flick latency (MPE) compared with same dose of WIN alone ([1]; SR 0.083 ng/kg with WIN 0.09375 mg/kg, t(14)=8.16, P≦0.005) | tail flick latency (MPE) compared with same dose of WIN alone ([1]; SR 0.55 ng/kg in combination with WIN 0.0625 mg/kg, t(14)=6.72, P≦0.005) | tail flick latency (MPE) compared with same dose of WIN alone ([1]; SR 0.83 ng/kg with WIN 0.09375 mg/kg, t(14)=9.63, P≦0.005) | antinociceptive properties of WIN in rat tail flick test (FIG. 1A, 1B) ([1]; ultra-low dose SR (0.55, 0.055, 0.83, 0.083 ng/kg) with WIN (0.0625 or 0.09375 mg/kg), single i.v. injection) | tail flick latency thresholds compared with WIN alone ([2]; SR 0.11 ng/kg with WIN 0.125 mg/kg, t(14)=14.35, P≦0.01) | tail flick latency thresholds compared with WIN alone ([2]; SR 1.1 ng/kg with WIN 0.125 mg/kg, t(14)=9.77, P≦0.01) | prevention of WIN-induced tolerance / enhancement of antinociception ([2]; SR to WIN dose ratio 1:100,000) | prevention of WIN-induced tolerance / enhancement of antinociception ([2]; SR to WIN dose ratio 1:1,000,000, slightly (although not significant) better at preventing tolerance) | development of tolerance to the analgesic action of WIN in rat tail flick test (FIG. 2) ([2]; daily ultra-low dose SR (1.1 or 0.11 ng/kg) with WIN 0.125 mg/kg, i.v.) | degree of antinociception in the tail flick test ([1]; rat, in vivo) | tail flick latency (MPE) compared with vehicle ([1]; rat, in vivo) | tail flick latency compared with vehicle ([2]; WIN 0.125 mg/kg i.v. alone, daily for 7 days, tested days 1, 3, 5, 7, t(14)=10.44, P≦0.01) | degree of antinociception in the tail flick test ([2]; WIN alone at 0.125 mg/kg i.v.) | time point post-injection of maximal WIN-induced antinociception ([2]; tail flick, i.v.)
Cc1c(C(=O)NN2CCCCC2)nn(-c2ccc(Cl)cc2Cl)c1-c1ccc(Cl)cc1 [SR, N-(Piperidin-1-yl)-5-(4-chlorophenyl)-1-(2,4-dichlorophenyl)-4-methyl-1H-pyrazole-3-carboxamide] | no difference | longer tail flick latencies | longer tail flick latencies | longer tail flick latencies | enhanced | greater tail flick latency thresholds | greater tail flick latency thresholds | effective | effective | prevented the development of tolerance | – | – | – | – | –
CS(=O)(=O)O.Cc1c(C(=O)c2cccc3ccccc23)c2cccc3c2n1[C@H](CN1CCOCC1)CO3 [WIN, (R)-(+)-[2,3-Dihydro-5-methyl-3-(4-morpholinylmethyl)pyrrolo[1,2,3-de]-1,4-benzoxazin-6-yl]-1-naphthalenylmethanone mesylate] | – | – | – | – | – | – | – | – | – | – | sub-maximal antinociception | no difference | greater tail flick latencies | maximal antinociception | 10 min
